Test results as given in the supplement of paper PMC10307832.

Tests used:
Assay in all cases: relative viability (nuclei count vs DMSO), 5 days (fraction); higher = more cells survive
201T = test system: 201T
Method in brief: (§1)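 Each reported value is a median over duplicate plates. It expresses relative viability: treated-well nuclei count divided by vehicle-well nuclei count. Lung cancer cell lines in 1536-well plates were dosed by pin tool a day after seeding, alone with one drug or with a fixed anchor-drug dose plus five library-drug doses (not always all listed) in √10 steps, and nuclei were counted after 5 days.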

BEN = test system: BEN
Method in brief: as §1

EPLC-272H = test system: EPLC-272H
Method in brief: as §1

HCC-15 = test system: HCC-15
Method in brief: as §1

HCC-78 = test system: HCC-78
Method in brief: as §1

LCLC-97TM1 = test system: LCLC-97TM1
Method in brief: as §1

LU99A = test system: LU99A
Method in brief: as §1

NCI-H1355 = test system: NCI-H1355
Method in brief: as §1

NCI-H1395 = test system: NCI-H1395
Method in brief: as §1

NCI-H2009 = test system: NCI-H2009
Method in brief: as §1

NCI-H2085 = test system: NCI-H2085
Method in brief: as §1

NCI-H2126 = test system: NCI-H2126
Method in brief: as §1

NCI-H2228 = test system: NCI-H2228
Method in brief: as §1

NCI-H2342 = test system: NCI-H2342
Method in brief: as §1

NCI-H23 = test system: NCI-H23
Method in brief: as §1

NCI-H2405 = test system: NCI-H2405
Method in brief: as §1

NCI-H322M = test system: NCI-H322M
Method in brief: as §1

NCI-H460 = test system: NCI-H460
Method in brief: as §1

NCI-H647 = test system: NCI-H647
Method in brief: as §1

NCI-H650 = test system: NCI-H650
Method in brief: as §1

NCI-H661 = test system: NCI-H661
Method in brief: as §1

NCI-H838 = test system: NCI-H838
Method in brief: as §1

PC-14 = test system: PC-14
Method in brief: as §1

SMILES: Cc1cn(-c2cc(NC(=O)c3ccc(C)c(Nc4nccc(-c5cccnc5)n4)c3)cc(C(F)(F)F)c2)cn1 [Nilotinib] + Cc1cc(Nc2cc(N3CCN(C)CC3)nc(Sc3ccc(NC(=O)C4CC4)cc3)n2)n[nH]1 [Tozasertib] (partner 0.1 µM)
- relative viability (201T; first compound 0.003162 µM): 1.18
- relative viability (201T; first compound 0.01 µM): 0.976
- relative viability (201T; first compound 0.03162 µM): 0.691
- relative viability (201T; first compound 0.1 µM): 0.634
- relative viability (BEN; first compound 0.001 µM): 0.498
- relative viability (BEN; first compound 0.003162 µM): 0.494
- relative viability (BEN; first compound 0.01 µM): 0.456
- relative viability (BEN; first compound 0.03162 µM): 0.408
- relative viability (BEN; first compound 0.1 µM): 0.509
- relative viability (EPLC-272H; first compound 0.001 µM): 0.212
- relative viability (EPLC-272H; first compound 0.003162 µM): 0.18
- relative viability (EPLC-272H; first compound 0.01 µM): 0.251
- relative viability (EPLC-272H; first compound 0.03162 µM): 0.182
- relative viability (EPLC-272H; first compound 0.1 µM): 0.105
- relative viability (HCC-15; first compound 0.001 µM): 0.236
- relative viability (HCC-15; first compound 0.003162 µM): 0.312
- relative viability (HCC-15; first compound 0.01 µM): 0.217
- relative viability (HCC-15; first compound 0.03162 µM): 0.165
- relative viability (HCC-15; first compound 0.1 µM): 0.136
- relative viability (HCC-78; first compound 0.001 µM): 0.408
- relative viability (HCC-78; first compound 0.003162 µM): 0.373
- relative viability (HCC-78; first compound 0.01 µM): 0.479
- relative viability (HCC-78; first compound 0.03162 µM): 0.331
- relative viability (HCC-78; first compound 0.1 µM): 0.28
- relative viability (LCLC-97TM1; first compound 0.001 µM): 0.236
- relative viability (LCLC-97TM1; first compound 0.003162 µM): 0.254
- relative viability (LCLC-97TM1; first compound 0.01 µM): 0.161
- relative viability (LCLC-97TM1; first compound 0.03162 µM): 0.182
- relative viability (LCLC-97TM1; first compound 0.1 µM): 0.217
- relative viability (LU99A; first compound 0.001 µM): 0.232
- relative viability (LU99A; first compound 0.003162 µM): 0.268
- relative viability (LU99A; first compound 0.01 µM): 0.211
- relative viability (LU99A; first compound 0.03162 µM): 0.256
- relative viability (LU99A; first compound 0.1 µM): 0.226
- relative viability (NCI-H1355; first compound 0.001 µM): 0.512
- relative viability (NCI-H1355; first compound 0.003162 µM): 0.454
- relative viability (NCI-H1355; first compound 0.01 µM): 0.442
- relative viability (NCI-H1355; first compound 0.03162 µM): 0.343
- relative viability (NCI-H1355; first compound 0.1 µM): 0.316
- relative viability (NCI-H1395; first compound 0.001 µM): 0.691
- relative viability (NCI-H1395; first compound 0.003162 µM): 0.674
- relative viability (NCI-H1395; first compound 0.01 µM): 0.751
- relative viability (NCI-H1395; first compound 0.03162 µM): 0.612
- relative viability (NCI-H1395; first compound 0.1 µM): 0.736
- relative viability (NCI-H2009; first compound 0.001 µM): 0.622
- relative viability (NCI-H2009; first compound 0.003162 µM): 0.853
- relative viability (NCI-H2009; first compound 0.01 µM): 0.577
- relative viability (NCI-H2009; first compound 0.03162 µM): 0.372
- relative viability (NCI-H2009; first compound 0.1 µM): 0.383
- relative viability (NCI-H2085; first compound 0.001 µM): 0.616
- relative viability (NCI-H2085; first compound 0.003162 µM): 0.593
- relative viability (NCI-H2085; first compound 0.01 µM): 0.585
- relative viability (NCI-H2085; first compound 0.03162 µM): 0.47
- relative viability (NCI-H2085; first compound 0.1 µM): 0.427
- relative viability (NCI-H2126; first compound 0.001 µM): 0.786
- relative viability (NCI-H2126; first compound 0.003162 µM): 0.857
- relative viability (NCI-H2126; first compound 0.01 µM): 0.963
- relative viability (NCI-H2126; first compound 0.03162 µM): 0.599
- relative viability (NCI-H2126; first compound 0.1 µM): 0.438
- relative viability (NCI-H2228; first compound 0.003162 µM): 0.223
- relative viability (NCI-H2228; first compound 0.01 µM): 0.212
- relative viability (NCI-H2228; first compound 0.03162 µM): 0.16
- relative viability (NCI-H2228; first compound 0.1 µM): 0.141
- relative viability (NCI-H2342; first compound 0.001 µM): 0.501
- relative viability (NCI-H2342; first compound 0.003162 µM): 0.561
- relative viability (NCI-H2342; first compound 0.01 µM): 0.45
- relative viability (NCI-H2342; first compound 0.03162 µM): 0.494
- relative viability (NCI-H2342; first compound 0.1 µM): 0.603
- relative viability (NCI-H23; first compound 0.001 µM): 0.303
- relative viability (NCI-H23; first compound 0.003162 µM): 0.329
- relative viability (NCI-H23; first compound 0.01 µM): 0.283
- relative viability (NCI-H23; first compound 0.03162 µM): 0.247
- relative viability (NCI-H23; first compound 0.1 µM): 0.226
- relative viability (NCI-H2405; first compound 0.001 µM): 0.767
- relative viability (NCI-H2405; first compound 0.003162 µM): 0.765
- relative viability (NCI-H2405; first compound 0.01 µM): 0.712
- relative viability (NCI-H2405; first compound 0.03162 µM): 0.654
- relative viability (NCI-H2405; first compound 0.1 µM): 0.723
- relative viability (NCI-H322M; first compound 0.001 µM): 0.471
- relative viability (NCI-H322M; first compound 0.003162 µM): 0.427
- relative viability (NCI-H322M; first compound 0.01 µM): 0.492
- relative viability (NCI-H322M; first compound 0.03162 µM): 0.456
- relative viability (NCI-H322M; first compound 0.1 µM): 0.548
- relative viability (NCI-H460; first compound 0.001 µM): 0.152
- relative viability (NCI-H460; first compound 0.03162 µM): 0.1
- relative viability (NCI-H460; first compound 0.1 µM): 0.0459
- relative viability (NCI-H647; first compound 0.001 µM): 0.147
- relative viability (NCI-H647; first compound 0.003162 µM): 0.227
- relative viability (NCI-H647; first compound 0.01 µM): 0.164
- relative viability (NCI-H647; first compound 0.03162 µM): 0.143
- relative viability (NCI-H647; first compound 0.1 µM): 0.139
- relative viability (NCI-H650; first compound 0.001 µM): 0.665
- relative viability (NCI-H650; first compound 0.003162 µM): 0.67
- relative viability (NCI-H650; first compound 0.01 µM): 0.725
- relative viability (NCI-H650; first compound 0.03162 µM): 0.672
- relative viability (NCI-H650; first compound 0.1 µM): 0.68
- relative viability (NCI-H661; first compound 0.001 µM): 0.346
- relative viability (NCI-H661; first compound 0.003162 µM): 0.357
- relative viability (NCI-H661; first compound 0.01 µM): 0.364
- relative viability (NCI-H661; first compound 0.03162 µM): 0.382
- relative viability (NCI-H661; first compound 0.1 µM): 0.355
- relative viability (NCI-H838; first compound 0.001 µM): 0.219
- relative viability (NCI-H838; first compound 0.003162 µM): 0.298
- relative viability (NCI-H838; first compound 0.01 µM): 0.294
- relative viability (NCI-H838; first compound 0.03162 µM): 0.228
- relative viability (NCI-H838; first compound 0.1 µM): 0.221
- relative viability (PC-14; first compound 0.001 µM): 0.682
- relative viability (PC-14; first compound 0.003162 µM): 0.485
- relative viability (PC-14; first compound 0.01 µM): 0.53
- relative viability (PC-14; first compound 0.03162 µM): 0.519
- relative viability (PC-14; first compound 0.1 µM): 0.615
